Experimental findings from patent US10093627B2, “Tetrahydroquinoline derivatives and their use as Epac inhibitors” (Institut National de la Sante et de la Recherche Medicale …, priority 2012, dated 2018) are described below.

Molecules are shown by their SMILES.

The target of one assay is T1, Epac1 (Homo sapiens, UniProt O95398).
T1 construct: Recombinant human Epac1 (residues 149-881), deleted of its Dishevelled, Egl-10, and Pleckstrin (DEP) domain; made in house
T1 sequence (O95398 149-881 isoform O95398-3): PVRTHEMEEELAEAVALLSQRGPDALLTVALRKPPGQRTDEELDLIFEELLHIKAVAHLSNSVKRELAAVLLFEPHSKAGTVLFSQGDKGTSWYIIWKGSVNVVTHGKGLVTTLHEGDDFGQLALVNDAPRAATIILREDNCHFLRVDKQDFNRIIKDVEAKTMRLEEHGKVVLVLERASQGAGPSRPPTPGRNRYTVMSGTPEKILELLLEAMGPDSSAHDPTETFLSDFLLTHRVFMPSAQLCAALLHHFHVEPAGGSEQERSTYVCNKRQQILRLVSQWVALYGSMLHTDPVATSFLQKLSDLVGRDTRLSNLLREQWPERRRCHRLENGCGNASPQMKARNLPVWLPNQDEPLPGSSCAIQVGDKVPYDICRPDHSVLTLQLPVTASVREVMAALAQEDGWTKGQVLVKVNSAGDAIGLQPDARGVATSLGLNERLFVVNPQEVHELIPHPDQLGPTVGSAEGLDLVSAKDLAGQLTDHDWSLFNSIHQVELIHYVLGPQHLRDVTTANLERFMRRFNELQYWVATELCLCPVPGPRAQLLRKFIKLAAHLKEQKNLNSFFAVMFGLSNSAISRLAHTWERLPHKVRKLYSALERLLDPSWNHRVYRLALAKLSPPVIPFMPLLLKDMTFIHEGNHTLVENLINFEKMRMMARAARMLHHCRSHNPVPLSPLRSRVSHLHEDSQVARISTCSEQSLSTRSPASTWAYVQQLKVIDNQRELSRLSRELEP
The experiment in a line: In vitro GEF activity (initial velocity of GDP exchange on Rap1A) of Epac1. Type of assay: biochemical. As for the experimental part:
Protein NCBI Reference Sequences for human Epac1 and Epac2 are NP_006096 and NP_008954, respectively. Recombinant human Epac1 (residues 149-881), deleted of its Dishevelled, Egl-10, and Pleckstrin (DEP) domain, and human Rap1A were produced with GST as a fusion tag (D. Courilleau et al., Identification of a tetrahydroquinoline analog as a pharmacological inhibitor of the cAMP-binding protein Epac, J. Biol. Chem. 287 (2012) 44192-44202).
In vitro GDP exchange catalyzed by Epac was measured using purified recombinant Epac isoforms and Rap1A loaded with Bodipy-GDP, as described in D. Courilleau, et al (above mentioned). The GEF activity of Epac proteins was initiated by injection of the agonist. Stock solutions of CE3F4 and its analogs (12 mM in 100% DMSO) were kept at −20° C. and were diluted in assay buffer (0.67% final DMSO concentration) just before use for GDP exchange assays. The release of Bodipy-GDP was measured in real time as the decay of fluorescence. A single exponential was fit to the time-course data using the Graphpad Prism program. The initial velocity (Vi) of GDP exchange on Rap1 was calculated as described in D. Courilleau et al.).
Data are expressed as mean±S.D. Differences in quantitative variables were examined by unpaired one- or two-tailed Student's t test. EC50 and IC50 values were computed according to a four-parameters dose-response model and compared on the basis of the extra sum-of square F test, using Graphpad Prism. Two-tailed Wilcoxon matched-pair signed rank tests were performed using GraphPad Prism.

The test system of assay [1] is Epac1-induced Rap1 activation in HEK293 cells. In words: Epac1-induced Rap1 activation, Rap1-GTP pull-down in HEK293 cells. It counts as cell-based. Conditions: 10 min. The protocol:
HEK293 cells were transfected with either pcDNA3 control vector or Epac1 (see FIG. 2A).
HEK293 cells were transfected with Epac1 and 24 h after transfection, cells were preincubated or not with CE3F4 for 30 min and were then treated or not with Sp-007 (10 μM) for 10 min (see FIG. 2B).
HEK293 cells overexpressing β1AR (Beta-1 adrenergic receptors) and transfected with Epac1 were pretreated or not with CE3F4 and stimulated or not with Iso (10 μM) for 10 min (see FIG. 2C).
Amounts of Rap1-GTP were determined by pull-down assays (see Material and Methods). The bar graph represents the mean±S.E.M. of 5 (FIG. 2A, 2B) or 3 (FIG. 2C) independent experiments. Results are expressed as the percentage of unstimulated control cells.
Ras and Rap1 pull-down experiments were performed using a GST fusion protein containing respectively the Ras binding domain of Raf1-RBD and the Rap1 binding domain of Ral-GDS as previously described (Métrich et al., 2008). Cells were starved for 1 h before stimulation in MEM free with penicillin-streptomycin (1%). After stimulation, cells were lysed in RIPA buffer (50 mM Tris-HCl, pH 7.5; 500 mM NaCl; 20 mM MgCl2; 0.5% deoxycholic acid; 0.1% SDS; 1% Triton X-100; 1 mM PMSF; protease and phosphatase inhibitors) and 500 μg of protein were incubated with either GST-Raf1-RBD (for Ras) or Ral-GDS (for Rap1) coupled to glutathione-Sepharose beads (Amersham Biosciences) for 1h at 4° C. Beads were then washed three times in washing buffer (50 mM Tris-HCl, pH 7.5; 150 mM NaCl, 20 mM MgCl2, 1% Triton X-100; 0.1 mM PMSF; protease and phosphatase inhibitors). Rap1-GTP or Ras samples and corresponding total lysates were separated on SDS-PAGE gels and transferred onto a polyvinylidene difluoride (PVDF) membrane (Amersham Pharmacia Biotech).

Turning to `CC1CCc2c(cc(Br)c(F)c2Br)N1C=O` (racemic) [CE3F4], the “Inhibition of GEF activity of Epac1 compared with Epac2(AB) or Epac2(B)” value at Epac1 (50 μM racemic CE3F4, agonist 50 μM 007 or 300 μM cAMP, FIG. 6A) was “much more inhibited”. On Epac1 (Epac1 GEF activity toward Rap1, Epac1 activated by 20 μM 007, mean of n=4 to 9 independent determinations), this compound showed an EC50 of 10.7 µM. In addition, 11 µM corresponded to half-maximal inhibition on Epac1 (Epac1 activated by 300 μM cAMP) (IC50). The “Antagonism of cAMP-activated Epac1 GEF activity” value at Epac1 (compound 30 μM, 300 μM cAMP, FIG. 6C) is reported as “stronger antagonist”. In addition, the “Effect on increase in amount of Rap1-GTP following Sp-007 treatment” value in assay [1] (CE3F4 20 μM, 30 min preincubation, Sp-007 10 μM, HEK293 transfected with Epac1, FIG. 2B) is “prevented the increase”. For the same compound, the “Effect on Epac1-induced Rap1 activation following β1-AR stimulation by isoprenaline” value in assay [1] (Iso 10 μM, HEK293 overexpressing β1AR, transfected with Epac1, FIG. 2C) is recorded as “decreased”.

In general, EC50 refers to the concentration giving half of the maximal effect. A low value points to greater potency. For orientation: IC50 means the concentration that inhibits the measured activity by half. High values mean a need for much substance, low ones inhibition by little substance.
